Experimental data reported in patent US20250295790A1, “LECTIN-TARGETING CONJUGATES” (Helmholtz-Zentrum für Infektionsforschung GmbH, priority 2021, published 2025).
Entries after “also recorded” stand apart in the source; their conditions may differ. Where no end group is shown, it is not given here. [ ]: non-standard residue; d: D form. Nba = nitrobenzyl amine (quencher); 2Abz = Nc1ccccc1C(=O)O

How the values were obtained:
[1] = system: P. aeruginosa PAO1 biofilms; assay: P. aeruginosa biofilm staining in the flow cell; format: cell-based, Pseudomonas aeruginosa PAO1; settings: 500 nM in medium, 4 h accumulation, flow 3 mL/h
Description: Colonies of PAO1 wt labelled with the red fluorescent protein mCherry (pMP7605) were picked from a LB agar plate and transferred to 10 mL LB medium with Gentamicin 60 μg/ml to start an overnight culture. Incubation was done at 37° C. and 180 rpm overnight. A fresh culture was inoculated to an OD600nm of 0.02 (10 mL LB with Gentamicin 60 μg/mL) and incubated until the exponential growth phase was reached (OD600nm of 0.4 to 0.8). The bacterial suspension was diluted again to an OD600m of 0.1 and 300 μL were injected into a six-channel μ-slide (ibidi, Germany). The settling time was 30 min. The flow of 1:5 diluted LB medium with Gentamicin 60 μg/ml was 3 mL/h. The biofilms were grown in a heat system (ibidi, Germany) at 30° C. and for 48 h.
After 48 h of biofilm growth, aggregates were stained by supplementing the divalent LecA ligand 57 and Fluorescein disodium salt 58 as a control to the medium. The final concentration of the supplements in the medium was 500 nM and constantly accumulated within the biofilm for 4 h by a flow rate of 3 mL/h. Washing was performed for 30 min with LB 1:5 diluted with Gentamicin 60 μg/mL.
Analysis was done by using a fluorescence microscope Leica DMi8. […] The green fluorescein signal was detected by an excitation wavelength of 460 to 500 nm and an emission wavelength of 512 to 542 nm. Snapshots were normalized by using the Fiji software. […]

[2] = Cleavage / stability in PA14-filtrate without human blood plasma; format: in vitro ADME, Pseudomonas aeruginosa PA14; settings: up to 24 h
Description: P. aeruginosa PA14 was streaked on LB-agar plates (1% agar) from glycerol stocks and incubated at 37° C. overnight. 2-5 colonies were picked and dispersed in 10 mL LB (10 g/L trypton, 10 g/L NaCl, 5 g/L yeast extracts). This dispersion was incubated overnight at 37° C., 180 rpm under high humidity. The culture was centrifuged (4000 ref, room temperature, 10 min) and the supernatant was filtered (0.22 m pore size). […]
A 1 mM solution of the studied compound was prepared in PBS (150 mM NaCl, 2.6 mM KCl, 1.4 mM KH2PO4, 10 mM Na2HPO4, pH 7.4) with 20% DMSO. 50 μL of this solution was diluted in 950 μL matrix or human plasma (spiked with 10% LB) on ice. After brief vortex, 100 μL were immediately treated with 100 μL ice-cold MeCN (spiked with […] diphenhydramine as internal standard). The rest of the solution was incubated at 37° C. and 500 rpm in an eppendorf thermomixer. At various time points (30, 60, 120, 180 min), 100 L sample were taken and treated as described above. […] The AUC of the parent drug and its cleavage products and the internal standard was quantified using Compass QuantAnalysis quantification software. The relative AUC was calculated by AUC (compound)/AUC(ISTD). Procaine was used as a positive control as it readily degrades in human plasma.

LecA [3] = target: T1, LecA (Pseudomonas aeruginosa, UniProt Q05097); assay: Surface plasmon resonance with LecA; format: binding
T1 construct: made in house
T1 sequence (Q05097 whole entry): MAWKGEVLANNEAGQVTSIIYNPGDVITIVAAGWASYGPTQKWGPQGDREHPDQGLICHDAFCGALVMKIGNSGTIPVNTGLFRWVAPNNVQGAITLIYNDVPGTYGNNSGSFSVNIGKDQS
Description: Surface plasmon resonance experiments were performed on a BIACORE X100 instrument (GE Healthcare) at 25° C. as described by Zahorska et. al. 2020. Averages and standard deviations were calculated from three independent experiments.

LecA [4] = target: T1, LecA; assay: Isothermal titration calorimetry with LecA; format: binding
Description: Isothermal titration calorimetry was performed on an iTC200 (Malvern Panalytical) and the data were analyzed using Microcal Origin software (Malvern Panalytical). LecA in the cell was titrated with ligand in TBS/Ca^2+ buffer supplemented with 5% DMSO at 25° C. Steep titration slopes were the result of high amount of protein present and the high binding affinity of the ligand (high ‘value of c’).
Isothermal titration calorimetry was performed on an iTC200 (Malvern Panalytical) and the data were analyzed using Microcal Origin software (Malvern Panalytical).

[5] = Stability in aqueous buffer; format: physicochemical; settings: Tris buffer (TBS/Ca2+), after 24 h
LecA [6] = target: T1, LecA; assay: Direct titration of fluorescent ligand with LecA in fluorescence polarization assay; format: binding
MMP-2 = target: T2, MMP-2 (Homo sapiens, UniProt P08253); assay: FRET-based cleavage assay with MMP-2; format: biochemical; settings: serial dilution of activated MMP-2
T2 sequence (P08253 110-660): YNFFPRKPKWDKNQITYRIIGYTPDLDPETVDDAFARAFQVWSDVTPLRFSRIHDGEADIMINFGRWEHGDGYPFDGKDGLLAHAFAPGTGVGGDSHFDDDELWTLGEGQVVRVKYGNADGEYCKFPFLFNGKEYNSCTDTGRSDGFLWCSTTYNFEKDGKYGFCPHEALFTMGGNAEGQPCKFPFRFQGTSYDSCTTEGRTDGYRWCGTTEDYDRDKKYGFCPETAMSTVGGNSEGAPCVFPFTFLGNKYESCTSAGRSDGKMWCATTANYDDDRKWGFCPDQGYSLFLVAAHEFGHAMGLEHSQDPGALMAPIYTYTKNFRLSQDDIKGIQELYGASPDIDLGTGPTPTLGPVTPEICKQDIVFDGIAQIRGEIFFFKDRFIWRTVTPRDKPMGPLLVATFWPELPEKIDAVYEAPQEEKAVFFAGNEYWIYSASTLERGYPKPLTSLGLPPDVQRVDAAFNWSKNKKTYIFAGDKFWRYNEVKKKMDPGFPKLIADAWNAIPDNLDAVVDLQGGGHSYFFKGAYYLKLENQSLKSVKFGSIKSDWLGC
Description: MMP-2 (50 μL, 0.2 μg/mL in 20 mM tris pH 7.5, 8 mM CaCl2, 119 mM NaCl, 20% Glycerol, 0.05% Brij 35, Cat #SAE0174-50UG, Sigma-Aldrich) was activated with 1 mM APMA (from 100 mM DMSO stock, Cat #AS—71158, AnaSpec) for 1 h at 37° C. Then, dilution series of the activated MMP-2 and of PA14-filtrate were prepared in PBS. SensoLyte 520 generic MMP substrate (Cat #AS—71158, AnaSpec) was diluted 1:100 in PBS. […] 10 μL dilution series was mixed with 10 μL MMP substrate or LasB substrate and fluorescence (λex=490 mn, λem=520 nm and λex=320 mn, λem=420 nm, for MMP substrate and LasB substrate, respectively) was recorded for 10 min (10 s interval).

[7] = system: T3, LasB cleavable substrate Abz-Ala-Gly-Leu-Ala-Nba (SEQ ID NO 3, labelled)
T3 sequence: AGLA

[8] = system: T4, LecA-targeted prodrug 36 (peptide-based prodrug with the linker Ala-Gly-Leu-Ala, SEQ ID NO 3, between a LecA-targeting galactoside and fluoroquinolone 2)
T4 sequence: AGLA

## CC1=CC(C)=[N+]2C1=Cc1ccc(CCC(=O)NCCCN=[N+]=[N-])n1[B-]2(F)F [BDP FL azide]
[1]
  biofilm staining: did not show any enrichment

## CC(C)C[C@H](N)C(=O)N[C@@H](C)C(=O)N[C@H]1CCN(c2cc3c(cc2F)c(=O)c(C(=O)O)cn3C2CC2)C1 [Compound 35, 7-((S)-3-((S)-2-((S)-2-amino-4-methylpentanamido)propanamido)pyrrolidin-1-vl)-1-cyclopropyl-6-fluoro-4-oxo-1,4-dihydroquinoline-3-carboxylic acid]
[2]
  release of free drug from dipeptide-conjugates: very slow; also recorded: only slowly released their antibiotic cargo

## C#CCCN(Cc1ccc(NC(=O)CCc2ccc(O[C@@H]3OC(CO)[C@H](O)C(O)C3O)cc2)cc1)Cc1ccc(NC(=O)CCc2ccc(O[C@@H]3OC(CO)[C@H](O)C(O)C3O)cc2)cc1 (some centres unmarked) [Compound 55]
LecA [3]
  Kd: 0.0099 ± 0.0005 µM
LecA [4]
  Kd: 0.0472 ± 0.0113 µM

## O=C(CCc1ccc(O[C@@H]2OC(CO)[C@H](O)C(O)C2O)cc1)Nc1ccc(CN(CCc2cn(CCOCCOCCOCCNC(=S)Nc3ccc4c(c3)C(=O)OC43c4ccc(O)cc4Oc4cc(O)ccc43)nn2)Cc2ccc(NC(=O)CCc3ccc(O[C@@H]4OC(CO)[C@H](O)C(O)C4O)cc3)cc2)cc1 (some centres unmarked) [Compound 57]
[5]
  degradation in buffer: did not show any degradation
LecA [6]
  Kd: 1.05 µM
LecA [3]
  Kd: 0.0193 ± 0.0105 µM
LecA [4]; ITC, TBS/Ca2+ buffer, 5% DMSO, 25° C.
  Kd: High affinity

## Abz-Ala-Gly-Leu-Ala-Nba ([2Abz]AGLA-Nba) [LasB-substrate]
MMP-2
  cleavage of FRET substrate by MMP-2: rather stable; also recorded: very weak turnover

## matrix-metalloprotease 2 (MMP-2), activated with APMA
[7]
  turnover of the LasB-substrate in a FRET-based cleavage assay (serial dilution of activated MMP-2): Only a very weak turnover of the LasB-substrate was observed in a FRET-based cleavage assay at very high concentrations (>50 ng/mL final) of MMP-2
[8]
  Stability of prodrug 36 in presence of activated MMP-2, monitored by HPLC-MS: No detectable metabolism was observed after 20 min or 3 d at 37 °C
